This passage reports pest or weed control results from patent US20220132847A1, “CINNOLINIUM COMPOUNDS FOR USE IN A METHOD OF CONTROLLING UNWANTED PLANT GROWTH” (SYNGENTA CROP PROTECTION AG, priority 2019, published 2022).

Holding throughout (experiment): Post-emergence efficacy, glasshouse
Format in all cases: in vivo

Assay [1] deals with Amaranthus palmeri (AMAPA). The following applies: Amaranthus palmeri, post-emergence, 312 h; Application Rate 1000 g/Ha; evaluated after 13 days; 100=total damage to plant, 0=no damage to plant; read-out: Control of weed species after post-emergence application, AMAPA. As to the method:
(§1) Seeds of a variety of test species were sown in standard soil in pots. After cultivation for 14 days (post-emergence) under controlled conditions in a glasshouse (at 24/16° C., day/night; 14 hours light; 65% humidity), the plants were sprayed with an aqueous spray solution derived from the dissolution of the technical active ingredient formula (I) in a small amount of acetone and a special solvent and emulsifier mixture referred to as IF50 (11.12% Emulsogen EL360™+44.44% N-methylpyrrolidone+44.44% Dowanol DPM glycol ether), to create a 50 g/l solution which was then diluted to required concentration using 0.25% or 1% Empicol ESC70 (Sodium lauryl ether sulphate)+1% ammonium sulphate in water as diluent.
(§2) The test plants were then grown in a glasshouse under controlled conditions (at 24/16° C., day/night; 14 hours light; 65% humidity) and watered twice daily. After 13 days the test was evaluated (100=total damage to plant; 0=no damage to plant).
(§3) Ipomoea hederacea (IPOHE), Euphorbia heterophylla (EPHHL), Chenopodium album (CHEAL), Amaranthus palmeri (AMAPA), Lolium perenne (LOLPE), Digitaria sanguinalis (DIGSA), Eleusine indica (ELEIN), Echinochloa crus-galli (ECHCG), Setaria faberi (SETFA)

In assay [2] the test system is Chenopodium album (CHEAL). The following applies: Chenopodium album, post-emergence, 312 h; Application Rate 1000 g/Ha; evaluated after 13 days; 100=total damage to plant, 0=no damage to plant; read-out: Control of weed species after post-emergence application, CHEAL. As to the method:
as §1, §2, §3

For assay [3], the system named is Digitaria sanguinalis (DIGSA). The following applies: Digitaria sanguinalis, post-emergence, 312 h; Application Rate 1000 g/Ha; evaluated after 13 days; 100=total damage to plant, 0=no damage to plant; read-out: Control of weed species after post-emergence application, DIGSA. As to the method: as §1, §2, §3
In assay [4] the test system is Echinochloa crus-galli (ECHCG). Conditions: Echinochloa crus-galli, post-emergence, 312 h; Application Rate 1000 g/Ha; evaluated after 13 days; 100=total damage to plant, 0=no damage to plant; read-out: Control of weed species after post-emergence application, ECHCG. As to the method: as §1, §2, §3
Assay [5] relates to Eleusine indica (ELEIN). The following applies: Eleusine indica, post-emergence, 312 h; Application Rate 1000 g/Ha; evaluated after 13 days; 100=total damage to plant, 0=no damage to plant; read-out: Control of weed species after post-emergence application, ELEIN. As for the experimental part: as §1, §2, §3
In assay [6] the test system is Euphorbia heterophylla (EPHHL). Conditions: Euphorbia heterophylla, post-emergence, 312 h; Application Rate 1000 g/Ha; evaluated after 13 days; 100=total damage to plant, 0=no damage to plant; read-out: Control of weed species after post-emergence application, EPHHL. As for the experimental part: as §1, §2, §3
In assay [7] the test system is Ipomoea hederacea (IPOHE). The following applies: Ipomoea hederacea, post-emergence, 312 h; Application Rate 1000 g/Ha; evaluated after 13 days; 100=total damage to plant, 0=no damage to plant; read-out: Control of weed species after post-emergence application, IPOHE. As for the experimental part: as §1, §2, §3
Assay [8] has as its system Lolium perenne (LOLPE). The following applies: Lolium perenne, post-emergence, 312 h; Application Rate 1000 g/Ha; evaluated after 13 days; 100=total damage to plant, 0=no damage to plant; read-out: Control of weed species after post-emergence application, LOLPE. As for the experimental part:
as §1, §2, §3

The test system of assay [9] is Setaria faberi (SETFA). The following applies: Setaria faberi, post-emergence, 312 h; Application Rate 1000 g/Ha; evaluated after 13 days; 100=total damage to plant, 0=no damage to plant; read-out: Control of weed species after post-emergence application, SETFA. As to the method:
as §1, §2, §3

Each structure is given as a SMILES string. Counter-ions that a name gives are not always drawn.

For the compound `COCC[n+]1cc(C(=O)[N-]S(C)(=O)=O)c2ccccc2n1` [Compound A24], the pest or weed control at 1000 g/ha stood at 70% in [1]; 70% in assay [2]; 40% in assay [3]; 50% in [4]; 50% in [5]; 40% in assay [6]. The pest or weed control at 1000 g/ha in assay [7] worked out at 60%; in [8], 20%; in [9], 50%.

As for `Cn1ncnc1NC(=O)c1c[n+](C)nc2ccccc12` [Compound A25, 2-methyl-N-(2-methyl-1,2,4-triazol-3-yl)cinnolin-2-ium-4-carboxamide iodide], the pest or weed control at 1000 g/ha in [1] is 50%; in assay [2], 50%; in assay [3] it was 10%; in [4] it was 10%; in [5], 10%; in [6], 20%. Further, the pest or weed control at 1000 g/ha in [7] came out at 30%; in [8], 10%; in [9], 20%.

As to `C[n+]1cc(C(=O)Nc2nncs2)c2ccccc2n1` [Compound A26], the pest or weed control at 1000 g/ha was 20% in assay [1]; 40% in assay [2]; 0% in assay [3]; 20% in assay [4]; 20% in [5]; 20% in assay [6]. The pest or weed control at 1000 g/ha was found to be 30% in assay [7], 10% in assay [8] and 10% in assay [9].

With `O=C(O)c1c[n+](CCOS(=O)(=O)[O-])nc2ccccc12` [Compound A28, 2-(4-carboxycinnolin-2-ium-2-yl)ethyl sulfate], the pest or weed control at 1000 g/ha in assay [1] is 90%; in assay [2] it was 70%; in assay [3] it was 70%; in assay [4], 20%; in [5], 40%; in [6], 30%. Besides, the pest or weed control at 1000 g/ha is 20% in assay [7], 50% in assay [8] and 40% in [9].

As to `C[n+]1cc(C(=O)O)c2ccccc2n1` [Compound A29], the pest or weed control at 1000 g/ha stood at 90% in assay [1]; 90% in assay [2]; 30% in assay [3]; 40% in [4]; 20% in [5]; 80% in assay [6]. The pest or weed control at 1000 g/ha came out at 80% in assay [7], 40% in assay [8] and 50% in assay [9].

Turning to `O=C(O)c1c[n+](CCO)nc2ccccc12` [Compound A30], the pest or weed control at 1000 g/ha was 100% in [1]; 100% in [2]; 90% in [3]; 50% in [4]; 80% in [5]; 100% in assay [6]. The pest or weed control at 1000 g/ha in assay [7] was determined as 100%; in [8], 40%; in assay [9], 70%.

In the case of `C[n+]1cc(P(C)(=O)O)c2ccccc2n1` [Compound A31], the pest or weed control at 1000 g/ha in [1] was 100%; in [2], 80%; in assay [3], 100%; in assay [4], 60%; in [5], 100%; in [6] it was 100%. For the same compound, the pest or weed control at 1000 g/ha in assay [7] stood at 90%; in assay [8] it was 70%; in assay [9], 90%.

As for `CCCS(=O)(=O)[N-]C(=O)c1c[n+](C)nc2ccccc12` [Compound A33], the pest or weed control at 1000 g/ha in assay [1] was found to be 40%; in assay [2], 40%; in assay [3], 80%; in [4] it was 20%; in assay [5], 70%; in assay [6], 80%. Besides, the pest or weed control at 1000 g/ha in [7] was determined as 60%; in assay [8], 40%; in [9], 40%.

Take `CC(C)S(=O)(=O)[N-]C(=O)c1c[n+](C)nc2ccccc12` [Compound A34]: the pest or weed control at 1000 g/ha came out at 20% in assay [1]; 50% in [2]; 30% in assay [3]; 20% in assay [4]; 40% in [5]; 60% in assay [6]. Besides, the pest or weed control at 1000 g/ha in assay [7] turned out to be 50%; in assay [8], 0%; in assay [9], 60%.

For `C[n+]1cc(C(=O)[N-]S(=O)(=O)c2ccccc2)c2ccccc2n1` [Compound A35], the pest or weed control at 1000 g/ha in [1] is 20%; in [2] it was 0%; in [3] it was 10%; in assay [4], 0%; in assay [5], 0%; in assay [6], 40%. In addition, the pest or weed control at 1000 g/ha came out at 20% in assay [7], 0% in assay [8] and 10% in assay [9].

As to `C[n+]1cc(C(=O)[N-]S(=O)(=O)C(C)(C)C)c2ccccc2n1` [Compound A36], the pest or weed control at 1000 g/ha in [1] is 40%; in assay [2], 30%; in assay [3] it was 10%; in [4], 10%; in assay [5], 30%; in assay [6], 20%. Moreover, the pest or weed control at 1000 g/ha was found to be 30% in [7], 0% in assay [8] and 30% in [9].

Consider `CCS(=O)(=O)[N-]C(=O)c1c[n+](C)nc2ccccc12` [Compound A37], for which the pest or weed control at 1000 g/ha in assay [1] came to 100%; in assay [2], 80%; in assay [3] it was 80%; in [4], 40%; in assay [5] it was 70%; in assay [6], 90%. Further, the figures for the pest or weed control at 1000 g/ha in [7], in assay [8] and in [9] were 80%, 40% and 60%, respectively.

Take `C[n+]1cc(C(=O)[N-]S(=O)(=O)c2ccc(F)cc2)c2ccccc2n1` [Compound A38]: the pest or weed control at 1000 g/ha in assay [1] is 60%; in assay [2] it was 50%; in assay [3], 30%; in assay [4] it was 20%; in assay [5], 90%; in [6], 60%. The values for the pest or weed control at 1000 g/ha in [7], in assay [8] and in [9] were 20%, 0% and 40%, respectively.
